Source: PMC6331810, “Novel Coumarin-Containing Aminophosphonatesas Antitumor Agent: Synthesis, Cytotoxicity, DNA-Binding and Apoptosis Evaluation” (Molecules, 2015)

Tests used:
[1] = system: HCT-116 cells; test: Apoptosis and cell cycle analysis by flow cytometry (PI staining); type: cell-based, human; settings: HCT-116, 48 h at IC50 concentration
Experimental: Compared to the control (untreated cells), changes in the cell cycle distribution of treated HCT-116 cells were evident.
Figure 6 Inhibition of cell cycle progress in HCT-116 cells treated with compounds 8d, 8f, 8c and 8j for 48 h. Cells were fixed with ethanol and stained with PI. Cell cycle distribution was analyzed by flow cytometry. First peak represents sub-G1 peak, which was taken as the fraction of the apoptotic cell population. TEXT PRINTED IN THE PICTURE: 8d: Diploid: 100.00%; Dip G1: 87.24 % at 74.84; Dip G2: 7.42 % at 147.44; Dip S: 5.34 % | 8f: Diploid: 100.00%; Dip G1: 74.25 % at 73.13; Dip G2: 10.86 % at 144.07; Dip S: 14.89 % | 8c: Diploid: 100.00%; Dip G1: 82.72 % at 72.85; Dip G2: 6.28 % at 143.51; Dip S: 11.00% | 8j: Diploid: 100.00%; Dip G1: 15.12 % at 45.10; Dip G2: 52.47 % at 88.84; Dip S: 32.40%; Apoptosis: 4.01 % Mean: 33.84 | Control (−): Diploid: 100.00%; Dip G1: 35.32 % at 52.60; Dip G2: 19.20 % at 103.62; Dip S: 45.84% DOUBTS OF THE COPYIST ABOUT THIS PICTURE: Print is small throughout, so 3, 5, 6, 8 and 9 cannot be told apart with certainty in the values below; best readings are given. / 8d, Dip G1: 87.24 % at 74.84, the 8s uncertain / 8d, Dip S: 5.34, the 5 and 3 uncertain / 8f, Dip G2: 10.86 % at 144.07, the 8 and 6 uncertain / 8f, Dip S: 14.89, the 8 and 9 uncertain / 8c, Dip G1: 82.72 % at 72.85, the 8s and 5 uncertain / 8c, Dip G2: 6.28 % at 143.51, the 6, 8, 3 and 5 uncertain / 8j, Dip G2: 52.47 % at 88.84, the 5 and 8s uncertain / 8j, Apoptosis: 4.01 % Mean: 33.84, the 3s and 8 uncertain / Control (−), Dip G1: 35.32 % at 52.60, the 3s, 5s and 6 uncertain / Control (−), Dip G2: 19.20 % at 103.62, the 9, 3 and 6 uncertain / Control (−), Dip S: 45.84, the 5 and 8 uncertain / Control (−) is an untreated control, not a compound; it is included because results are printed with it. / G2/G1: 1.97 and %CV, printed in every plot, are left out as fit parameter and statistic.
Apoptosis was quantified by assessing the fraction of cells with sub-G1 DNA content by flow cytometry. The cells lines were treated with indicated concentrations of compounds […]. After incubated for 48 h, cells were washed twice with ice-cold PBS, fixed and permeabilized with ice-cold 70% ethanol at −20 °C overnight. The cells were treated with 100 μg/mL RNase A at 37 °C for 30 min after washed with ice-cold PBS, and finally stained with 1 mg/mL propidium iodide (PI) in the dark at 4 °C for 30 min. Analysis was performed with the system software (Cell Quest; BD Biosciences, Franklin Lakes, NJ, USA).

[2] = system: MGC-803 (human lung adenocarcinoma cell line); test: MTT cytotoxicity assay, MGC-803; type: cell-based; settings: 48 h, no irradiation, mean ± SD of three experiments
Experimental: Cell Lines. The following in vitro human cancer cell lines were used: HCT-116 (Human colorectal cells), human KB (human nasopharyngeal carcinoma cells), MGC-803 (human lung adenocarcinoma cell line), HUVEC (Human Umbilical Vein Endothelial Cells). The cell lines (HCT-116, KB, MGC-803 and HUVEC) were purchased from the Cell Resource Center of Shanghai Institutes for Biological Sciences, the Academy of Sciences of China.
Cell Culture. HCT-116, human KB, MGC-803 and HUVEC cells were cultured in Dulbecco Modified Eagle Medium (DMEM; HyClone, Los Angeles, CA, USA), containing 4.0 mM L-Glutamine and 4500 mg/L Glucose, supplemented with 10% (v/v) foetalbovine serum (FBS; HyClone). The cell culturemedia was supplemented with penicillin/streptomycin at 100 Units/mL as adherent monolayers. Cell cultures were kept in a humidified incubator with 5% CO2 at 37 °C. Stock solutions were prepared in dimethyl sulfoxide (DMSO) and further dilutions were made with fresh culture medium. The concentration of DMSO in the final culture medium was 1%, which had no effect on the cell viability.
MTT Assay. Chemosensitivity was assessed using 3-(4,5-dimethylthiazol-2-yl)-2,5-diphenyl tetrazolium bromide (MTT) assay. Briefly, exponentially growing HCT-116 (3000–4000 cells/well), human KB (2000–3000 cells/well) and MGC 803 (2000–3000 cells/well) were seeded into 96-well plates and treated with indicated concentrations of samples for 48 h, and then […] of MTT (10 mg/mL) was added. After incubation for 4 h at 37 °C, the purple formazan crystals (i.e., a reduced form of MTT) generated from viable cells were dissolved by adding 100 μL DMSO in each well. The plates were swirled gently for 10 min to dissolve the precipitate, and quantified by measuring the optical density (OD) of the plates at a wavelength of 490 nm on plate reader (TECAN infinite M1000). Each concentration was repeated in three wells and the same experimental conditions were provided for all compounds and MTT analysis was repeated three times for each cell line.

[3] = system: Bax, Bcl-2, cytochrome c, caspase-9 and caspase-3 in HCT-116 cells; test: Western blot of apoptosis-related proteins; type: cell-based, human
Excerpt: To confirm the molecular mechanisms involved in the observed apoptosis alterations, we investigated the effects of compound 8j on the expression of proteins important for mitochondria mediated apoptosis. Apoptosis occurs through two different pathways, that is the intrinsic and extrinsic pathways. Intrinsic pathway involves mitochondria that play a pivotal role in apoptosis, whereas extrinsic pathway is mediated by cell death receptors such as Fas, TNF α after receiving the death signal. It is well-known that the intrinsic pathway is regulated by the Bcl-2 family of pro- and anti- apoptotic proteins, which stimulate the permeabilization of the mitochondrial outer membrane and cytochrome c released into the cytosol, promoting in the activation of the caspase cascade and the induction of apoptotic cell death. […] Then, the roles of important caspases (caspase-9 and caspase-3) were investigated. […] Thus, compound 8j induced HCT-116 cells apoptosis might decrease the activation of Bcl-2 and stimulate its downstream proteins which are associated with the mitochondria-dependent apoptotic pathway.
Figure 7 Effect of compound 8j on cytochrome c release and levels of Bcl-2, Bax, Caspase-9 and Caspase-3. Equal amount of protein was loaded on SDS-PAGE gel for western blot analysis as described in experimental section. β-actin was used as an internal control.

[4] = HCT-116, vs control cells, dose-dependent

SMILES	G1-phase population ([1]; untreated cells 35.32%) [%]	IC50 [2] [µM]	Cell cycle effect in words [1]	Cytochrome c release ([3]; HCT-116, cytosol)	Levels of caspase-3 protein ([3]; HCT-116, vs control)	Levels of caspase-9 protein ([3]; HCT-116, vs control)	Expression of Bcl-2 [3, 4]	Levels of Bax [3, 4]	IC50 ([2]; Homo sapiens, MGC-803, light or radiation study) [µM]
CCOP(=O)(OCC)C(NC(=O)CCOc1ccc2c(C)cc(=O)oc2c1)c1cccc(Br)c1 (stereo not drawn) [Compound 8f, Diethyl(3-(4-methyl-2-oxo-2H-chromen-7-yloxy)propanamido)(3-bromophenyl)methylphospho-nate]	74.25	74.2 ± 3.36	–	–	–	–	–	–	–
CCOP(=O)(OCC)C(C)(NC(=O)CCOc1ccc2c(C)cc(=O)oc2c1)c1ccccc1 (stereo not drawn) [Compound 8j, Diethyl 1-(3-(4-methyl-2-oxo-2H-chromen-7-yloxy)propanamido)-1-phenylethylphosphonate]	–	–	accumulation of cells in the G2 phase accompanying reduction in the G1 phase	accumulation of cytochrome c in the cytosol	marked increase	marked increase	decrease	significant increase	14.6 ± 1.11
